Data taken from paper PMC9304322, “Targeting retinoic acid receptor alpha-corepressor interaction activates chaperone-mediated autophagy and protects against retinal degeneration” (Nature Communications, 2022).
Several values for one entry are separate records, joined by “and”; a condition that tells them apart may be missing. Equal values may be shown once.

Tests used:
[1] = system: NIH3T3 cells stably expressing the mCherry-GFP-LC3 reporter; test: Macroautophagy activity, mCherry-GFP-LC3 reporter; format: cell-based, mouse
Method: Cells were transduced with a lentiviral vector expressing mCherry-GFP-LC3[35], fixed and flux determined as the conversion of dual fluorescence puncta (autophagosomes) into only red fluorescent puncta (autolysosomes). Flux was also measured by immunoblot for LC3 in cells incubated for 6 h with 20 mM NH4Cl/100 μM leupeptin, by discounting the intensity of LC3 in non-treated cells from that in cells treated with the inhibitors.

[2] = system: primary human fibroblast expressing the KFERQ-PS-Dendra reporter; test: CMA activity, KFERQ-PS-Dendra reporter in primary human fibroblasts; format: cell-based; parameters: key to CMA activity, mean (Fig. S2c): puncta per cell
Method: (§1) Cells were transduced with lentivirus carrying the KFERQ-PS-Dendra reporter as before. Cells were photoactivated by exposure to a 3.5 mA (current constant) light emitting diode (LED: Norlux, 405 nm) for 3 min and then plated in glass-bottom 96 well plates. At the desired times, cells were fixed with 4% PFA and imaged using high-content microscopy (Operetta system, Perkin Elmer). Images were quantified using the manufacturer’s software in a minimum of 1,200 cells in 9 independent fields per well. […] This was particularly important in the case of primary human cells where the efficiency of transduction was ~65%. To avoid confounding effects for drug-induced changes in cell volume or adherence to the plate that could bring a fraction of the cells per field outside of focus, we set a threshold to count only […] that have at least 1/10 of the average number of […] detected in the untreated wells for each cell type (3–4 puncta/cell in the case of NIH3T3 and N2a cells and 5 puncta/cell in primary human fibroblasts).

[3] = system: NIH3T3 stably expressing the KFERQ-PS-Dendra; test: CMA activity, KFERQ-PS-Dendra fluorescent reporter in NIH3T3 mouse fibroblasts; format: cell-based; parameters: CMA activity (Fig. 1d), MEAN / CMA activity (Fig. 1e-g), mean / CMA activity (Fig. 1d), individual experiments / CMA activity, mean (Fig. S2c, second panel) / CMA activity, mean (Fig. S2c, first panel) / CMA activity, mean (Fig. S2c, third panel): unit not given here; conditions: for CMA activity (Fig. 1e-g), mean: n = 4; for CMA activity, mean (Fig. S2c, first panel) / CMA activity, mean (Fig. S2c, second panel) / CMA activity, mean (Fig. S2c, third panel): compound and cell type of panel not shown
Method: as §1

[4] = c0 = 2 (axis unlabelled; ANOVA calls row factor Time)
[5] = concentration 10 (unit not given)
[6] = concentration 15 (unit not given)
[7] = concentration 20 (unit not given)
[8] = concentration 25 (unit not given)
[9] = concentration 30 (unit not given)
[10] = concentration 40 (unit not given)
[11] = concentration 50 (unit not given)

## Clc1ccc2c(c1)OCC(c1ccc(-c3ccccc3)cc1)=N2 [CA39]
[1]; NIH3T3, MRT-sensitive proteolysis, LC3-II flux, mCherry-GFP-LC3 reporter
  effect on macroautophagy: did not have the inhibitory effect on macroautophagy
[1]; [4]
  APG (Fig. S3e): 3.494
  AUT (Fig. S3e): 0.8582
  AV (Fig. S3e): 4.352
[1]; c0 = 5 (axis unlabelled)
  APG (Fig. S3e): 2.288
  AUT (Fig. S3e): 1.522
  AV (Fig. S3e): 3.81
[1]; c0 = 10 (axis unlabelled)
  APG (Fig. S3e): 2.801
  AUT (Fig. S3e): 1.622
  AV (Fig. S3e): 4.423
[1]; c0 = 15 (axis unlabelled)
  APG (Fig. S3e): 3.21
  AUT (Fig. S3e): 1.42
  AV (Fig. S3e): 4.63
[1]; c0 = 20 (axis unlabelled)
  APG (Fig. S3e): 2.614
  AUT (Fig. S3e): 2.2085
  AV (Fig. S3e): 4.823
[1]; c0 = 25 (axis unlabelled)
  APG (Fig. S3e): 2.9327
  AUT (Fig. S3e): 2.406
  AV (Fig. S3e): 5.339
[1]; c0 = 30 (axis unlabelled)
  APG (Fig. S3e): 1.904
  AUT (Fig. S3e): 2.071
  AV (Fig. S3e): 3.975
[1]; c0 = 40 (axis unlabelled)
  APG (Fig. S3e): 3.037
  AUT (Fig. S3e): 2.167
  AV (Fig. S3e): 5.204
[1]; c0 = 50 (axis unlabelled)
  APG (Fig. S3e): 3.658
  AUT (Fig. S3e): 0.5267
  AV (Fig. S3e): 4.185
[2]; concentration 0.02
  CMA activity, mean (Fig. S2c): 24.0456
[2]; concentration 0.2
  CMA activity, mean (Fig. S2c): 28.2677
[2]; concentration 2
  CMA activity, mean (Fig. S2c): 18.5469
[2]; in words
  CMA activation in human cells: efficiently activated CMA
[3]; 20 μM of each compound, n = 3 independent experiments
  CMA activity (Fig. 1d), MEAN: 4.580
[3]; 20 μM of each compound, single experiments
  CMA activity (Fig. 1d), individual experiments: 5.482 and 4.270 and 3.988
[3]; 12h, concentration 0.02 (unit not given)
  CMA activity (Fig. 1e-g), mean: 3.045
[3]; 12h, concentration 0.2
  CMA activity (Fig. 1e-g), mean: 3.489
[3]; 12h, concentration 2
  CMA activity (Fig. 1e-g), mean: 3.493
[3]; 12h, concentration 5
  CMA activity (Fig. 1e-g), mean: 8.168
[3]; 12h, concentration 10
  CMA activity (Fig. 1e-g), mean: 10.4134
[3]; 12h, concentration 20
  CMA activity (Fig. 1e-g), mean: 22.9828
[3]; 12h, concentration 30
  CMA activity (Fig. 1e-g), mean: 30.7253
[3]; 12h, concentration 40
  CMA activity (Fig. 1e-g), mean: 33.0782
[3]; 12h, concentration 50
  CMA activity (Fig. 1e-g), mean: 21.8692
[3]; 24h, concentration 0.02
  CMA activity (Fig. 1e-g), mean: 3.576
[3]; 24h, concentration 0.2
  CMA activity (Fig. 1e-g), mean: 3.419
[3]; 24h, concentration 2
  CMA activity (Fig. 1e-g), mean: 5.488
[3]; 24h, concentration 5
  CMA activity (Fig. 1e-g), mean: 11.6083
[3]; 24h, concentration 10
  CMA activity (Fig. 1e-g), mean: 17.8717
[3]; 24h, concentration 20
  CMA activity (Fig. 1e-g), mean: 34.1318
[3]; 24h, concentration 30
  CMA activity (Fig. 1e-g), mean: 35.2802
[3]; 24h, concentration 40
  CMA activity (Fig. 1e-g), mean: 50.2311
[3]; 24h, concentration 50
  CMA activity (Fig. 1e-g), mean: 60.1885
[3]; concentration 0.2, 12+12w (12 h, then 12 h after washing out)
  CMA activity (Fig. 1h-j), mean, untreated (0) = 1: 1.104
[3]; concentration 0.2, 12h
  CMA activity (Fig. 1h-j), mean, untreated (0) = 1: 0.9726
[3]; concentration 0.2, 24h
  CMA activity (Fig. 1h-j), mean, untreated (0) = 1: 1.209
[3]; concentration 2, 12+12w
  CMA activity (Fig. 1h-j), mean, untreated (0) = 1: 1.202
[3]; concentration 2, 12h
  CMA activity (Fig. 1h-j), mean, untreated (0) = 1: 0.9735
[3]; concentration 2, 24h
  CMA activity (Fig. 1h-j), mean, untreated (0) = 1: 1.941
[3]; concentration 5, 12+12w
  CMA activity (Fig. 1h-j), mean, untreated (0) = 1: 1.546
[3]; concentration 5, 12h
  CMA activity (Fig. 1h-j), mean, untreated (0) = 1: 2.277
[3]; concentration 5, 24h
  CMA activity (Fig. 1h-j), mean, untreated (0) = 1: 4.106
[3]; [5]
  CMA activity, mean (Fig. S2c, first panel): 74.2616
  CMA activity, mean (Fig. S2c, second panel): 29.9019
  CMA activity, mean (Fig. S2c, third panel): 74.2616
[3]; concentration 10, 12+12w
  CMA activity (Fig. 1h-j), mean, untreated (0) = 1: 2.775
[3]; concentration 10, 12h
  CMA activity (Fig. 1h-j), mean, untreated (0) = 1: 2.902
[3]; concentration 10, 24h
  CMA activity (Fig. 1h-j), mean, untreated (0) = 1: 6.322
[3]; [6]
  CMA activity, mean (Fig. S2c, first panel): 68.2986
  CMA activity, mean (Fig. S2c, second panel): 41.4399
  CMA activity, mean (Fig. S2c, third panel): 68.2986
[3]; [7]
  CMA activity, mean (Fig. S2c, first panel): 74.8347
  CMA activity, mean (Fig. S2c, second panel): 54.0516
  CMA activity, mean (Fig. S2c, third panel): 74.8347
[3]; concentration 20, 12+12w
  CMA activity (Fig. 1h-j), mean, untreated (0) = 1: 4.843
[3]; concentration 20, 12h
  CMA activity (Fig. 1h-j), mean, untreated (0) = 1: 6.406
[3]; concentration 20, 24h
  CMA activity (Fig. 1h-j), mean, untreated (0) = 1: 12.0736
[3]; [8]
  CMA activity, mean (Fig. S2c, first panel): 71.1281
  CMA activity, mean (Fig. S2c, second panel): 57.8636
  CMA activity, mean (Fig. S2c, third panel): 71.1281
[3]; [9]
  CMA activity, mean (Fig. S2c, first panel): 76.3164
  CMA activity, mean (Fig. S2c, second panel): 40.4368
  CMA activity, mean (Fig. S2c, third panel): 76.3164
[3]; concentration 30, 12+12w
  CMA activity (Fig. 1h-j), mean, untreated (0) = 1: 9.0956
[3]; concentration 30, 12h
  CMA activity (Fig. 1h-j), mean, untreated (0) = 1: 8.564
[3]; concentration 30, 24h
  CMA activity (Fig. 1h-j), mean, untreated (0) = 1: 12.4798
[3]; [10]
  CMA activity, mean (Fig. S2c, first panel): 78.3071
  CMA activity, mean (Fig. S2c, second panel): 58.9165
  CMA activity, mean (Fig. S2c, third panel): 78.3071
[3]; [11]
  CMA activity, mean (Fig. S2c, first panel): 53.1619
  CMA activity, mean (Fig. S2c, second panel): 68.5848
  CMA activity, mean (Fig. S2c, third panel): 53.1619
[3]; fluorescent CMA reporter in mouse fibroblasts, basal and inducible CMA
  CMA activation compared with AR7: > 40 % CMA of AR7
[3]; mouse fibroblasts
  toxicity in cells: without noticeable toxicity
